From patent publication US20240262815A1, “HETEROARYL DERIVATIVE, METHOD FOR PREPARING SAME, AND PHARMACEUTICAL COMPOSITION COMPRISING SAME AS ACTIVE INGREDIENT” (VORONOI INC., priority 2021, published 2024)

Test system: SK-BR-3 cancer cells
Assay: Inhibitory activity against proliferation of SK-BR-3 cancer cells (CellTiter-Glo)
Format: cell-based
Details: Homo sapiens, SK-BR-3, 120 h, ErbB2-overexpressing SK-BR-3 cells, 120 hours after treatment
In short: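 GI50 derived from % growth relative to control, measured by CellTiter-Glo luminescence after 120 h compound exposure (12 concentrations, 0.2 nM-5 μM final, n=3). BT-474 grown in RPMI-1640/20% FBS, SK-BR-3 in McCOY'S 5A/10% FBS; seeding 48 h pre-treatment.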

Compound	GI50 [µM]
C=CC(=O)Nc1cc(Nc2cc(N3OCC[C@@H]3c3cccc(C#Cc4ccccc4)c3)ncn2)c(OC)cc1N1CCN(C)CC1 [Example 296, (R)-N-(4-methoxy-2-(4-methylpiper-azin-1-yl)-5-((6-(3-(3-(phenyleth-ynyl)phenyl)isox-azolidin-2-yl)pyr-imidin-4-yl)amino)-phenyl)acrylamide]	0.05 to 0.5
C=CC(=O)Nc1cc(Nc2cc(N3OCC[C@@H]3c3cccc(-c4ccc(O)nc4)c3)ncn2)c(OC)cc1N1CCN(C)CC1 [Example 299, (R)-N-(5-((6-(3-(3-(6-hydroxypyridin-3-yl)phenyl)isox-azolidin-2-yl)pyr-imidin-4-yl)amino)-4-methoxy-2-(4-methylpiperazin-1-yl)phenyl)acryl-amide]	0.5 to 5
C=CC(=O)Nc1cc(Nc2cc(N3OCC[C@@H]3c3cccc(C#CC(C)(C)C)c3)ncn2)c(OC)cc1N1CCN(C)CC1 [Example 311, (R)-N-(5-((6-(3-(3-(3,3-dimethyl-but-1-yn-1-yl)phen-yl)isoxazolidin-2-yl)pyrimidin-4-yl)-amino)-4-methoxy-2-(4-methylpiper-azin-1-yl)phenyl)-acrylamide]	0.05 to 0.5
C=CC(=O)Nc1cc(Nc2cc(N3OCC[C@@H]3c3cccc(C#Cc4cccc(O)c4)c3)ncn2)c(OC)cc1N(C)CCN(C)C [Example 312, (R)-N-(2-((2-(dimethylamino)-ethyl)(methyl)-amino)-5-((6-(3-(3-((3-hydroxy-phenyl)ethynyl)-phenyl)isoxazol-idin-2-yl)pyrim-idin-4-yl)amino)-4-methoxyphen-yl)acrylamide]	0.05 to 0.5
C=CC(=O)Nc1cc(Nc2cc(N3OCC[C@@H]3c3cccc(C#Cc4cccc(F)c4)c3)ncn2)c(OC)cc1N(C)CCN(C)C [Example 313, (R)-N-(2-((2-(dimethylamino)-ethyl)(methyl)-amino)-5-((6-(3-(3-((3-fluorophen-yl)ethynyl)phenyl)-isoxazolidin-2-yl)pyrimidin-4-yl)-amino)-4-methoxy-phenyl)acrylamide]	< 0.05
C=CC(=O)Nc1cc(Nc2cc(N3OCC[C@@H]3c3cccc(-c4cccc(F)c4)c3)ncn2)c(OC)cc1N1CC2CCC(C1)N2C1CC1 [Example 316, N-(2-((1R,5S)-8-cyclopropyl-3,8-diazabicyclo-[3.2.1]octan-3-yl)-5-((6-((R)-3-(3′-fluoro-[1,1′-biphen-yl]-3-yl)isoxazol-idin-2-yl)pyrim-idin-4-yl)amino)-4-methoxyphenyl)-acrylamide]	0.05 to 0.5
C=CC(=O)Nc1cc(Nc2cc(N3OCC[C@@H]3c3cccc(-c4cccc(F)c4)c3)ncn2)c(OC)cc1N1CC2CN(C)CC2C1 (stereo partly drawn) [Example 319, N-(5-((6-((R)-3-(3′-fluoro-[1,1′-biphenyl]-3-yl)-isoxazolidin-2-yl)-pyrimidin-4-yl)-amino)-4-methoxy-2-(5-methylhexa-hydropyrrolo[3,4-c]pyrrol-2(1H)-yl)-phenyl)acrylamide]	< 0.05
C=CC(=O)Nc1cc(Nc2cc(N3OCC[C@@H]3c3cccc(-c4cccc(F)c4)c3)ncn2)c(OC)cc1N1CC2(CNC2)C1 [Example 321, (R)-N-(5-((6-(3-(3′-fluoro-[1,1′-biphenyl]-3-yl)-isoxazolidin-2-yl)-pyrimidin-4-yl)-amino)-4-meth-oxy-2-(2,6-diaza-spiro[3.3]heptan-2-yl)phenyl)acryl-amide]	0.05 to 0.5
C=CC(=O)Nc1cc(Nc2cc(N3OCC[C@@H]3c3cccc(OCc4cccc(F)c4)c3)ncn2)c(OC)cc1N1CCN(C)CC1 [Example compound 83, (R)-N-(5-((6-(3-(3-((3-fluorobenzyl)oxy)phenyl)isoxazolidin-2-yl)pyrimidin-4-yl)amino)-4-methoxy-2-(4-methylpiperazin-1-yl)phenyl)acrylamide]	0.05 to 0.5
C=CC(=O)Nc1cc(Nc2cc(N3OCC[C@@H]3c3cccc(Oc4cccc(C(F)(F)F)c4)c3)ncn2)c(OC)cc1N1CCN(C)CC1 [Example compound 93, (R)-N-(4-methoxy-2-(4-methylpiperazin-1-yl)-5-((6-(3-(3-(3-(trifluoromethyl)phenoxy)phenyl)isoxazolidin-2-yl)pyrimidin-4-yl)amino)phenyl)acrylamide]	< 0.05
C=CC(=O)Nc1cc(Nc2cc(N3OCC[C@@H]3c3cccc(Oc4cccc(C(F)(F)F)c4)c3)ncn2)c(OC)cc1N1CCC(N2CCN(C3CC3)CC2)CC1 [Example compound 94, (R)-N-(2-(4-(4-cyclopropylpiperazin-1-yl)piperidin-1-yl)-4-methoxy-5-((6-(3-(3-(3-(trifluoromethyl)phenoxy)phenyl)isoxazolidin-2-yl)pyrimidin-4-yl)amino)phenyl)acrylamide]	< 0.05
C=CC(=O)Nc1cc(Nc2cc(N3OCCC3c3cccc(OCc4ccccn4)c3)ncn2)c(OC)cc1N1CC[C@@H](N(C)C)C1 (stereo partly drawn) [Example compound 97]	< 0.05
C=CC(=O)Nc1cc(Nc2cc(N3OCC[C@@H]3c3cccc(OCc4cccc(C)n4)c3)ncn2)c(OC)cc1N1CCN(C)CC1 [Example compound 99, (R)-N-(4-methoxy-2-(4-methylpiperazin-1-yl)-5-((6-(3-(3-((6-methylpyridin-2-yl)methoxy)phenyl)isoxazolidin-2-yl)pyrimidin-4-yl)amino)phenyl)acrylamide]	0.05 to 0.5
C=CC(=O)Nc1cc(Nc2cc(N3OCC[C@@H]3c3cccc(OCc4cccc(C)n4)c3)ncn2)c(OC)cc1N1CCC(N2CCN(C3CC3)CC2)CC1 [Example compound 100, (R)-N-(2-(4-(4-cyclopropylpiperazin-1-yl)piperidin-1-yl)-4-methoxy-5-((6-(3-(3-((6-methylpyridin-2-yl)methoxy)phenyl)isoxazolidin-2-yl)pyrimidin-4-yl)amino)phenyl)acrylamide]	0.05 to 0.5
C=CC(=O)Nc1cc(Nc2cc(N3OCC[C@@H]3c3cccc(Oc4cc(F)ccc4F)c3)ncn2)c(OC)cc1N1CCN(C)CC1 [Example compound 103, (R)-N-(5-((6-(3-(3-(2,5-difluorophenoxy)phenyl)isoxazolidin-2-yl)pyrimidin-4-yl)amino)-4-methoxy-2-(4-methylpiperazin-1-yl)phenyl)acrylamide]	0.05 to 0.5
C=CC(=O)Nc1cc(Nc2cc(N3OCCC3c3ccc(Cl)c(OCc4cccc(F)c4)c3)ncn2)c(OC)cc1N1CCN(C)CC1 (stereo not drawn) [Example compound 115, N-(5-((6-(3-(4-chloro-3-((3-fluorobenzyl)oxy)phenyl)isoxazolidin-2-yl)pyrimidin-4-yl)amino)-4-methoxy-2-(4-methylpiperazin-1-yl)phenyl)acrylamide]	0.05 to 0.5
C=CC(=O)Nc1cc(Nc2cc(N3OCCC3c3cccc(-c4ccoc4)c3)ncn2)c(OC)cc1N1CCC(N2CCN(C3CC3)CC2)CC1 (stereo not drawn) [Example compound 123, N-(2-(4-(4-cyclopropylpiperazin-1-yl)piperidin-1-yl)-5-((6-(3-(3-(furan-3-yl)phenyl)isoxazolidin-2-yl)pyrimidin-4-yl)amino)-4-methoxyphenyl)acrylamide]	< 0.05
C=CC(=O)Nc1cc(Nc2cc(N3OCC[C@@H]3c3cc(F)cc(-c4cnn(C)c4)c3)ncn2)c(OC)cc1N1CCC(N2CCN(C3CC3)CC2)CC1 [Example compound 129, (R)-N-(2-(4-(4-cyclopropylpiperazin-1-yl)piperidin-1-yl)-5-((6-(3-(3-fluoro-5-(1-methyl-1H-pyrazol-4-yl)phenyl)isoxazolidin-2-yl)pyrimidin-4-yl)amino)-4-methoxyphenyl)acrylamide]	< 0.05
